Laboratory results from US5532382A, “Benzothiophenes substituted at the 3-carbonyl” (Eli Lilly and Company, priority 1995, dated 1996).

How the values were obtained:
MCII cells = test: MCII MAST CELL TOXICITY ASSAY (XTT); assay type: cell-based, mouse; settings: XTT formazan, 37° C. 4-12 hours; read-out: MCII Mast Cell Toxicity IC50
Text: MCII MAST CELL TOXICITY ASSAY
This toxicity assay is run in parallel with the MCII mast cell LTC4 assay and serves as an indicator of compound effects on the viability and metabolic activity of the MCII cells. This "toxicity" assay is based on the ability of dehydrogenase enzymes present in viable metabolically active cells to bioreduce the tetrazolium salt XTT yielding a colored, water soluble formazan product. (see, Roehm et al.) An improved colorimetric assay for cell proliferation and viability utilizing the tetrazolium salt XTT. J. Immunol. Methods 142:257-65 (1991).
A duplicate polystyrene 96-well tissue culture plate (Costar) is set up with sensitized MCII cells, EM95 ascites, media and dilutions of the test compound as described above. The complete media is supplemented with concanavalin A induced culture supernatants from the mouse helper T cell clone D10.G4, as a source of mast cell growth factors.
Wells of the toxicity assay Elate are pulsed with 25 μl XTT (Sigma) plus phenazine methosulfate (Aldrich) giving a final concentration of 0.2 mg/ml XTT and 25 μM phenazine methosulfate. The plates are incubated at 37° C. in 10% CO2 for 4-12 hours and then production of the XTT formazan product determined by measuring the optical density of the wells at a wavelength of 450 nm. The positive control on each plate is stimulated MCII cells with dimethyl sulfoxide vehicle alone and the negative control is the same reaction mixture without cells. The background negative control value is subtracted from experimental and positive control values and the data are reported as percent of positive control.

[1] = tested on: production of thromboxane B2 (T×B2) in plasma-depleted blood; test: Inhibition of Eicosanoid Production by Plasma-depleted Blood: TxB2; assay type: cell-based; settings: Homo sapiens, read-out: Plasma DPLTD Blood TxB2 IC50
Experimental: Inhibition of Eicosanoid Production by Plasma-depleted Blood.
Compounds are evaluated for their ability to inhibit production of leukotriene B4 (LTB4) and thromboxane B2 (T×B2) upon stimulation of human plasma-depleted blood with formyl-methionyl-leucyl-phenylalanine (FMLP) and thrombin. LTB4 is produced by neutrophils and T×B2 by platelets stimulated at their respective receptors with FMLP and thrombin. The assay is carried out in 1 ml deep well polypropylene 96-well plates (Beckman). For the test, ten ml of blood is collected in EDTA at a final concentration of 1.5 mg/ml. Then, 40 ml glucose phosphate buffer containing 0.1% gelatin is added and the suspension centrifuged at 900 g for 10 minutes at room temperature. The supernatant is discarded and the cells washed once with 50 ml buffer before resuspending them in 50 ml Krebs-Ringers-Henseleit Buffer containing 0.1% gelatin, 1 mM […], 1.1 mM MgCl2 (KRH buffer). Working solutions of test compounds are made by dissolving the material in DMSO at 10 mM and diluting with appropriate amounts of KRH buffer. An agonist solution is made containing 1 μM FMLP (sigma) and 10 units/ml of thrombin in KRH buffer (Enzyme Research Labs). […] The amount of LTB4 and T×B2 produced is determined by the use of a competetive enzyme immunoassay using commercial reagents from Cayman Chemical.

Row | SMILES | CC50 (MCII cells) [µM] | IC50 [1] [µM]
1 | O=C(c1ccccc1)c1c(-c2ccc(O)cc2)sc2cc(O)ccc12 [Compound A] | 0.3 | 
2 | Oc1ccc(-c2cc3ccc(O)cc3s2)cc1 [Compound B] | < 10 | 
3 | O=C(c1ccc(O)cc1)c1c(-c2ccc(O)cc2)sc2cc(O)ccc12 [Compound D] |  | > 9.8
4 | O=C(c1ccc(-c2ccccc2)cc1)c1c(-c2ccc(O)cc2)sc2cc(O)ccc12 [Example 1, 6-hydroxyphenyl-2-(p-hydroxyphenyl)-(benzo(B)thien-3-yl)(p-phenyl)phenyl methanone] | > 10 | 
5 | O=C(c1cccc2ccccc12)c1c(-c2ccc(O)cc2)sc2cc(O)ccc12 [Example 2, 6-hydroxyphenyl-2-(p-hydroxyphenyl)-(benzo(B)thien-3-yl) (α-naphyl)methanone] | > 10 | 
6 | O=C(c1ccc2ccccc2c1)c1c(-c2ccc(O)cc2)sc2cc(O)ccc12 [Example 3, 6-hydroxyphenl-2-(p-hydroxyphenyl)-(benzo(B)thien-3-yl) (β-napthyl)methanone] | > 10 | 
